Data as given in ChEMBL document CHEMBL2062370, “Identification of glycogen synthase kinase-3 inhibitors with a selective sting for glycogen synthase kinase-3α” (J Med Chem, 2012).

Columns and labels:
[1] = molecular target: Glycogen synthase kinase-3 alpha (Homo sapiens, UniProt P49840); assay: Inhibition of human recombinant GSK3alpha
[2] = molecular target: Glycogen synthase kinase-3 beta (Homo sapiens, UniProt P49841); assay: Inhibition of human recombinant GSK3beta
Danio rerio = species on record: Danio rerio; assay: Toxicity in wild type zebrafish embryo assessed as mortality up to 30 uM treated 5 hrs after post fertilization measured 5 days after post fertilization by microscopy; assay type: organism-based; conditions: in vivo, 120 h
Aurora kinase A = molecular target: T1, Aurora kinase A (Homo sapiens, UniProt O14965); assay: Inhibition of human recombinant AurKA by FRET assay
T1 sequence (O14965 whole entry): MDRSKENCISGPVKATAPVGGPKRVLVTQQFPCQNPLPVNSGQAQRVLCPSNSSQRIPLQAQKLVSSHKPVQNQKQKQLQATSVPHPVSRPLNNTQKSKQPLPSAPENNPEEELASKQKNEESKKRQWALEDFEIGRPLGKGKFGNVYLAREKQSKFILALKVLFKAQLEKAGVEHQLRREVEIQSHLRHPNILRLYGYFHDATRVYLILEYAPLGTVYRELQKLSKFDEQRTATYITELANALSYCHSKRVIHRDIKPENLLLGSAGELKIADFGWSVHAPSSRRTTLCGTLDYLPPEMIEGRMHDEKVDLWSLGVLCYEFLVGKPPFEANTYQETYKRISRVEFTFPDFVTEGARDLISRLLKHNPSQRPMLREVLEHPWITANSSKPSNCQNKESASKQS

[3] = molecular target: Protein kinase C alpha type (Homo sapiens, UniProt P17252); assay: Inhibition of human recombinant PKCalpha by FRET assay
[4] = molecular target: Cyclin-dependent kinase 5/CDK5 activator 1 (Homo sapiens, UniProt Q00535); assay: Inhibition of human recombinant CDK5/p35 by FRET assay; assay type: protein-complex assay
[5] = molecular target: Casein kinase I isoform epsilon (Homo sapiens, UniProt P49674); assay: Inhibition of human recombinant CK1epsilon by FRET assay
[6] = Octanol-phosphate buffer partition coefficient, log D of the compound at 100 uM at pH 7.4 after 60 mins by HPLC-UV/VIS spectroscopic analysis; assay type: physicochemical
Caco-2 = assay: Permeability from apical to basolateral side of human Caco2 cells at pH 6.5/7.4 after 60 mins by HPLC MS/ Mass spectroscopic analysis; assay type: ADME, cell-based; conditions: caco-2, pH 6.5, 1 h
Liver microsomes = assay: Metabolic stability in human liver microsomes after 60 mins by HPLC MS/ Mass spectroscopic analysis; assay type: ADME, Microsome; conditions: 1 h
[7] = Aqueous solubility of the compound at 200 uM at pH 7.4 in phosphate buffer saline after 24 hrs by HPLC-UV/VIS spectroscopic analysis; assay type: physicochemical; conditions: pH 7.4, 24 h

Sequence of Glycogen synthase kinase-3 beta (P49841 whole entry): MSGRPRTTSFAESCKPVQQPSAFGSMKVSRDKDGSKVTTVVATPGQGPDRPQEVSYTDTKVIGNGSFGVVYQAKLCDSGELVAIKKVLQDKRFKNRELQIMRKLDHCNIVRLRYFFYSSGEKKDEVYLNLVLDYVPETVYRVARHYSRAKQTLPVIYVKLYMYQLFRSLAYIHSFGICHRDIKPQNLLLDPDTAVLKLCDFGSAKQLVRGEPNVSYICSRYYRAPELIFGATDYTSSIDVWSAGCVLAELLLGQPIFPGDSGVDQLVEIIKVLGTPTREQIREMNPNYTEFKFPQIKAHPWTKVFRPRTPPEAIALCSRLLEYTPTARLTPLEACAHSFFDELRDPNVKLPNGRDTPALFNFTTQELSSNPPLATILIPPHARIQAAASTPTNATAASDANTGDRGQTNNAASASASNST
Sequence of Casein kinase I isoform epsilon (P49674 whole entry, canonical isoform): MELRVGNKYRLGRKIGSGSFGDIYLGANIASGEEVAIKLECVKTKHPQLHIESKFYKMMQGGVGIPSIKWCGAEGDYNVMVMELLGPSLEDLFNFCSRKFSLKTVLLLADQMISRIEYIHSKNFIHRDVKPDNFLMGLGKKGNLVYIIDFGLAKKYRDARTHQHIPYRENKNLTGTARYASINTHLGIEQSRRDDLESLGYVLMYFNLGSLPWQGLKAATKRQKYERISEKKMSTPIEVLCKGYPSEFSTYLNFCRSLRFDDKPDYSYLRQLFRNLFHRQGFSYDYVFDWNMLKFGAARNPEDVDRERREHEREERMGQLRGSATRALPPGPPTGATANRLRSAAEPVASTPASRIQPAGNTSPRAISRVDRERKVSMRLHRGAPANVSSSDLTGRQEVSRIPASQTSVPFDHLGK
Sequence of Glycogen synthase kinase-3 alpha (P49840 whole entry): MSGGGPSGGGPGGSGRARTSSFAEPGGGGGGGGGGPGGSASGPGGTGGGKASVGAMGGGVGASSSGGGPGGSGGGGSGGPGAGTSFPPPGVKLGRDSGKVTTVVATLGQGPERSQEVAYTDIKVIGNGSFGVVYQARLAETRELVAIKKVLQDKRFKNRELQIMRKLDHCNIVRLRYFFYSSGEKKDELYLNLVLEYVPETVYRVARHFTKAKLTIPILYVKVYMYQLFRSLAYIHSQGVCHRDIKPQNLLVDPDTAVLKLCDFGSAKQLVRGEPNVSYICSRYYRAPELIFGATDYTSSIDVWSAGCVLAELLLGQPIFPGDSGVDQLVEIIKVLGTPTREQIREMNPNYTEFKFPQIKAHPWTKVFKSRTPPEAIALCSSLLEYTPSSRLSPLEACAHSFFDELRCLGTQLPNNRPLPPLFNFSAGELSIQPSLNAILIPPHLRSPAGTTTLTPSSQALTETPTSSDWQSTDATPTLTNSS
Sequence of Cyclin-dependent kinase 5/CDK5 activator 1 (Q00535 whole entry, canonical isoform): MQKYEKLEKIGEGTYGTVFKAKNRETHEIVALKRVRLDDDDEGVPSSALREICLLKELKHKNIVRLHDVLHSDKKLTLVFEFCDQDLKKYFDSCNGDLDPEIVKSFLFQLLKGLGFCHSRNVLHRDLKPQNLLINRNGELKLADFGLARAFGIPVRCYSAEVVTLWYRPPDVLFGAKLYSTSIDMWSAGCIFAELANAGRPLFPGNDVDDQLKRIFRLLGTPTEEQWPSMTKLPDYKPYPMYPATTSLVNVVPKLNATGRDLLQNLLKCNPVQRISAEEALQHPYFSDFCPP
Sequence of Cyclin-dependent kinase 5/CDK5 activator 1 (Q15078 whole entry, further chain, canonical isoform): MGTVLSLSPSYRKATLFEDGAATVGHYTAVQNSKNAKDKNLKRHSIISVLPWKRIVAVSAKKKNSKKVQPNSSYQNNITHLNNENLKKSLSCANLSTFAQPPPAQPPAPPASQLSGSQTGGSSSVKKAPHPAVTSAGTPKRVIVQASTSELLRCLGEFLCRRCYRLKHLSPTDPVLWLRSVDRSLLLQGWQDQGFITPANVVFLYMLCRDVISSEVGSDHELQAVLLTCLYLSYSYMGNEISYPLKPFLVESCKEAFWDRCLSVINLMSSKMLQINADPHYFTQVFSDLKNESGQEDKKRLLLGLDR

N#Cc1cccc(CSc2nnc(-c3ccncc3)o2)c1
IC50 [1]: 3.21 µM
IC50 [2]: 3.16 µM
Activity (Danio rerio): Non-toxic

N#Cc1ccccc1-c1ccc(CSc2nnc(-c3ccc4c(c3)OCCO4)o2)cc1
IC50 [1]: < 0.005 µM
IC50 (Aurora kinase A): > 100 µM
IC50 [3]: > 100 µM
IC50 [2]: < 0.005 µM
IC50 [4]: > 100 µM
IC50 [5]: > 100 µM
Activity (Danio rerio): Non-toxic

c1ccc(CSc2nnc(-c3ccncc3)o2)cc1
IC50 [1]: 2.24 µM
IC50 [2]: 1.32 µM
Activity (Danio rerio): Non-toxic

CC(C)CNC(=O)c1ccc(CSc2nnc(-c3ccc4c(c3)OCCO4)o2)cc1
Activity (Danio rerio): Non-toxic

COC(=O)c1ccc(CSc2nnc(-c3ccc4c(c3)OCCO4)o2)cc1
IC50 (Aurora kinase A): > 100 µM
IC50 [3]: > 100 µM
IC50 [4]: > 100 µM
IC50 [5]: > 100 µM
Activity (Danio rerio): Non-toxic

N#Cc1ccc(CSc2nnc(-c3ccc4c(c3)OCCO4)o2)cc1
IC50 [1]: 0.045 µM
IC50 [2]: 0.166 µM
Activity (Danio rerio): Non-toxic

O=C(NCc1ccccc1)c1ccc(CSc2nnc(-c3ccc4c(c3)OCCO4)o2)cc1
Activity (Danio rerio): Non-toxic

N#Cc1cccc(CSc2nnc(-c3ccc4c(c3)OCCO4)o2)c1
IC50 [1]: 0.095 µM
IC50 [2]: 0.086 µM
Activity (Danio rerio): Non-toxic

N#Cc1cccc(CSc2nnc(-c3ccc4c(c3)OCO4)o2)c1
IC50 [1]: 0.015 µM
IC50 [2]: 0.065 µM
Activity (Danio rerio): Non-toxic

N#Cc1ccc(CSc2nnc(-c3ccncc3)o2)cc1
IC50 [1]: 7.38 µM
IC50 [2]: 10 µM
Activity (Danio rerio): Non-toxic

Ic1cccc(CSc2nnc(-c3ccncc3)o2)c1
IC50 [1]: 0.39 µM
Activity (Danio rerio): Non-toxic

COC(CNC(=O)c1ccc(CSc2nnc(-c3ccc4c(c3)OCCO4)o2)cc1)OC
Activity (Danio rerio): Non-toxic

O=C(O)c1ccc(CSc2nnc(-c3ccc4c(c3)OCO4)o2)cc1
Activity (Danio rerio): Non-toxic

N#Cc1cc(F)ccc1-c1ccc(CSc2nnc(-c3ccc4c(c3)OCCO4)o2)cc1
IC50 (Aurora kinase A): 5 µM
IC50 [3]: > 100 µM
IC50 [4]: > 100 µM
IC50 [5]: > 100 µM
Activity (Danio rerio): Non-toxic

COC(=O)c1ccc(CSc2nnc(-c3ccc4c(c3)OCO4)o2)cc1
Activity (Danio rerio): Non-toxic

N#Cc1ccccc1-c1ccc(CSc2nnc(-c3ccc4c(c3)OCO4)o2)cc1
IC50 [1]: < 0.005 µM
IC50 (Aurora kinase A): > 100 µM
IC50 [3]: > 100 µM
IC50 [2]: 0.039 µM
IC50 [4]: > 100 µM
IC50 [5]: > 100 µM
Activity (Danio rerio): Non-toxic

COCC1COc2ccc(-c3nnc(SCc4ccc(-c5ccccc5C#N)cc4)o3)cc2O1 (racemic)
IC50 [1]: 0.054 µM
IC50 (Aurora kinase A): 30 µM
IC50 [3]: > 100 µM
IC50 [2]: 0.233 µM
IC50 [4]: > 100 µM
IC50 [5]: > 100 µM
Activity (Danio rerio): Non-toxic

N#Cc1ccc(-c2ccc(CSc3nnc(-c4ccc5c(c4)OCO5)o3)cc2)cc1
logD at 1 h, 100 µM [6]: 3.58
permeability (Caco-2): impermeable
IC50 (Aurora kinase A): 30 µM
IC50 [3]: > 100 µM
IC50 [4]: > 100 µM
Stability (Liver microsomes): Stable
solubility [7]: Insoluble
IC50 [5]: 60 µM
Activity (Danio rerio): Non-toxic

c1cc(-c2nnn[nH]2)ccc1CSc1nnc(-c2ccc3c(c2)OCO3)o1
IC50 [1]: 0.107 µM
IC50 [2]: 0.172 µM
Activity (Danio rerio): Non-toxic

c1ccc(-c2ccc(CSc3nnc(-c4ccc5c(c4)OCO5)o3)cc2)cc1
IC50 [1]: 0.009 µM
IC50 (Aurora kinase A): > 100 µM
IC50 [3]: > 100 µM
IC50 [2]: 0.176 µM
IC50 [4]: > 100 µM
IC50 [5]: > 100 µM
Activity (Danio rerio): Non-toxic

COC[C@@H]1COc2ccc(-c3nnc(SCc4ccc(-c5ccccc5C#N)cc4)o3)cc2O1
IC50 [1]: 0.195 µM
IC50 (Aurora kinase A): > 100 µM
IC50 [3]: > 100 µM
IC50 [2]: 0.758 µM
IC50 [4]: > 100 µM
IC50 [5]: > 100 µM
Activity (Danio rerio): Non-toxic

COC[C@H]1COc2ccc(-c3nnc(SCc4ccc(-c5ccccc5C#N)cc4)o3)cc2O1
IC50 [1]: 0.015 µM
IC50 (Aurora kinase A): > 100 µM
IC50 [3]: > 100 µM
IC50 [2]: 0.129 µM
IC50 [4]: > 100 µM
IC50 [5]: > 100 µM
Activity (Danio rerio): Non-toxic

O=C(O)c1ccc(CSc2nnc(-c3ccc4c(c3)OCCO4)o2)cc1
Activity (Danio rerio): Non-toxic

N#Cc1ccccc1-c1ccc(CSc2nnc(-c3ccncc3)o2)cc1
IC50 [1]: 0.019 µM
IC50 (Aurora kinase A): > 100 µM
IC50 [3]: > 100 µM
IC50 [2]: 0.041 µM
IC50 [4]: > 100 µM
IC50 [5]: > 100 µM
Activity (Danio rerio): Non-toxic

COC(CNC(=O)c1ccc(CSc2nnc(-c3ccc4c(c3)OCO4)o2)cc1)OC
Activity (Danio rerio): Non-toxic

CC(C)CNC(=O)c1ccc(CSc2nnc(-c3ccc4c(c3)OCO4)o2)cc1
Activity (Danio rerio): Non-toxic

N#Cc1ccc(CSc2nnc(-c3ccc4c(c3)OCO4)o2)cc1
IC50 [1]: 0.015 µM
IC50 [2]: 0.13 µM
Activity (Danio rerio): Non-toxic

N#Cc1cc(F)ccc1-c1ccc(CSc2nnc(-c3ccc4c(c3)OCO4)o2)cc1
IC50 [1]: 0.003 µM
IC50 (Aurora kinase A): 30 µM
IC50 [3]: > 100 µM
IC50 [2]: 0.022 µM
IC50 [4]: > 100 µM
IC50 [5]: 20 µM
Activity (Danio rerio): Non-toxic
